Laboratory results reported in patent EP0206497B1, “Therapeutic nucleosides and their preparation” (priority 1985, dated 1986).

Experiments:
Format in all cases: cell-based
[1] = Cytotoxic effect against L cells; conditions: mouse, 10⁻⁴ M, % growth relative to the control
Method: (§1) The following compounds were tested for cytotoxic effect at 10⁻⁴ M against human D-98 and mouse L cells. Figures shown are % growth relative to the control.

[2] = Cytotoxic effect against D-98 cells; conditions: human, 10⁻⁴ M, % growth relative to the control
Method: as §1

friend leukaemia virus = assay: Retroviral activity against friend leukaemia virus; conditions: read-out: ED₅₀
Method: (§2) • a) Feline Leukaemia Virus Susceptible feline embryo lung fibroblasts (FLF-3) were seeded onto multiwell slides (10⁵ cells/ml, 0.05 ml/well) with Dulbecco-modified Eagle's essential medium (DME) and incubated at 37 °C overnight. Each of the 32 wells was then infected with 40-60 focus forming units (ffu) of feline leukaemia virus (FeLV) for one hour after which the medium was replaced with fresh DME with varying concentrations of 2,6-diaminopurine-9-β-D-2',3'-dideoxyribofuranoside per 4 wells. Concentrations were 0, 1.0, 10, 50, 100, 200 and 400 »M. After 3 days incubation at 37 °C, the cultures were assayed by the indirect fluorescent antigen test for the production of FeLV. […]. […] This protective effect was seen on both days 10 and 13 of the experiment. • c) Friend Leukaemia virus The compounds have been tested for retroviral activity against friend leukaemia virus with the following results.

HIV = assay: Block of HIV infection / cytopathic effect in cloned T4 positive T helper lymphocytes (cell survival); conditions: after 10 days in culture (protective effect seen on days 10 and 13), up to 5000 virions/cell, untreated infected cells 8-fold decreased
Method: as §2

[3] = tested on: feline leukaemia virus (FeLV); assay: Feline leukaemia virus production in infected FLF-3 fibroblasts, indirect fluorescent antigen test; conditions: FLF-3 cells; for inhibition: 3 days incubation
Method: as §2

Row | EC50 (friend leukaemia virus) [µM] | Structure (SMILES) | activity at 100 µM [1] [%] | activity at 100 µM [2] [%] | viral cytopathic effects in infected T cells (HIV; 2 »M) | viral cytopathic effects in infected T cells (HIV; 10 »M) | inhibition ([3]; 0.1 »M) [%] | inhibition ([3]; 10 »M) [%] | inhibition ([3]; 50 »M) [%] | production of FeLV ([3]; concentrations of 100 »M and above, 3 days incubation at 37°C)
1 | 25.9 | Nc1nc2c(ncn2[C@H]2CC[C@@H](CO)O2)c(=O)[nH]1 [2',3'-dideoxyguanosine, reference compound] | 93 | 87 |  |  |  |  |  | 
2 | 22.4 | Nc1nc(N)c2ncn([C@H]3CC[C@@H](CO)O3)c2n1 [2,6-Diaminopurine-9-β-D-2',3'-dideoxyribofuranoside] | 41 | 97 | no viral cytopathic effects were seen | no viral cytopathic effects were seen | 31 | 45 | 60 | Complete absence of FeLV
3 |  | Nc1ncc2ncn([C@H]3CC[C@@H](CO)O3)c2n1 [2-Aminopurine-9-β-D-2',3'-dideoxyribofuranoside] | 107 | 97 |  |  |  |  |  | 
